Reference: patent US20260042755A1, “GPR6 INVERSE AGONISTS” (MapLight Therapeutics, Inc., priority 2022, published 2026)

Assays:
GPR6 = target: T1, GPR6 (Homo sapiens, UniProt P46095); experiment: GPR6 antagonist functional cAMP assay (LANCE Ultra cAMP TR-FRET, CHO cells stably expressing GPR6); type: cell-based; settings: procedure as described in Example 24
T1 construct: expressed in transfected cells; host or cells: CHO cells
Outline: (§1)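 Cells in Krebs-Ringer buffer with 0.1% BSA and 150 μM Ro 20-1724 PDE inhibitor were exposed to compounds for 45 min at 37 °C (0.1% DMSO). cAMP was read by TR-FRET at 665 nm; IC50s came from 4-parameter fits normalized to DMSO and reference compound.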

GPR3 = target: T2, GPR3 (Homo sapiens, UniProt P46089); experiment: GPR3 antagonist functional cAMP assay (LANCE Ultra cAMP TR-FRET, CHO cells stably expressing GPR3); type: cell-based; settings: procedure as described in Example 24
T2 construct: expressed in transfected cells; host or cells: CHO cells
T2 sequence (P46089 whole entry, species assumed): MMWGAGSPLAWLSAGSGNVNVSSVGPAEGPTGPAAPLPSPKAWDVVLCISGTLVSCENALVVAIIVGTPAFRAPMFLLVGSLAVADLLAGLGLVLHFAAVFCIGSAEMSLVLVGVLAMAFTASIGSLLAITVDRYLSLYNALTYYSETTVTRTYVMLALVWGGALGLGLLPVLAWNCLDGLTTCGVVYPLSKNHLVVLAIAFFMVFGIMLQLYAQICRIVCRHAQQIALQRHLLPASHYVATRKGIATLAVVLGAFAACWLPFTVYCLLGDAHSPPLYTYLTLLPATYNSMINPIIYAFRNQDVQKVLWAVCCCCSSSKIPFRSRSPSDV
Outline: as §1

T1 sequence (P46095 whole entry): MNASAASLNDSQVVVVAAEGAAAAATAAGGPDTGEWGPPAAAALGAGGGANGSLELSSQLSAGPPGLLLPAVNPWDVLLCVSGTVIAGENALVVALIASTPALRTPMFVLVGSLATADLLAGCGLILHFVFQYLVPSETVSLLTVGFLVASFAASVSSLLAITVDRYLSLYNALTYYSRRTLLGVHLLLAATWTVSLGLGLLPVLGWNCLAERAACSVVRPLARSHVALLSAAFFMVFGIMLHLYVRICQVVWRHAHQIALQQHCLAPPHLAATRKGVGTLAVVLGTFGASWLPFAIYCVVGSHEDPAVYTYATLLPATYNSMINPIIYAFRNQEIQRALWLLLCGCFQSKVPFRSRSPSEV

| IC50 (GPR6) [µM] | IC50 (GPR3) [µM] | SMILES |
| --- | --- | --- |
| 0.1 to 1 | 1 to 30 | CC(=O)N1CCc2nc(N3CCC(Oc4ccc(F)cc4F)CC3)c(-c3cnn(C(F)F)c3)nc2C1 [Compound 15, 1-{3-[1-(difluoromethyl)-1H-pyrazol-4-yl]-2-[4-(2,4-difluorophenoxy)piperidin-1-yl]-5H,6H,7H,8H-pyrido[3,4-b]pyrazin-6-yl}ethan-1-one] |
| 0.1 to 1 | 1 to 30 | CC(=O)N1CCc2nc(N3CCC(Oc4ccc(F)cc4F)CC3)c(-c3cnn(CCF)c3)nc2C1 [Compound 16, 1-{2-[4-(2,4-difluorophenoxy)piperidin-1-yl]-3-[1-(2-fluoroethyl)-1H-pyrazol-4-yl]-5H,6H,7H,8H-pyrido[3,4-b]pyrazin-6-yl}ethan-1-one] |
| 1 to 30 | 0.1 to 1 | CC(=O)N1CCc2nc(N3CCC(Oc4ccc(F)cc4F)CC3)c(-c3ncco3)nc2C1 [Compound 18, 1-{2-[4-(2,4-difluorophenoxy)piperidin-1-yl]-3-(1,3-oxazol-2-yl)-5H,6H,7H,8H-pyrido[3,4-b]pyrazin-6-yl}ethan-1-one] |
| 1 to 30 | 1 to 30 | CC(=O)N1CCc2nc(N3CCC(Oc4ccc(F)cc4F)CC3)c(-c3ccc(=O)n(C)c3)nc2C1 [Compound 21, 5-{6-acetyl-2-[4-(2,4-difluorophenoxy)piperidin-1-yl]-5H,6H,7H,8H-pyrido[3,4-b]pyrazin-3-yl}-1-methyl-1,2-dihydropyridin-2-one] |
| 1 to 30 | 1 to 30 | CNC(=O)Cn1cc(-c2nc3c(nc2N2CCC(Oc4ccc(F)cc4F)CC2)CCN(C(C)=O)C3)cn1 [Compound 25, 2-(4-{6-acetyl-2-[4-(2,4-difluorophenoxy)piperidin-1-yl]-5H,6H,7H,8H-pyrido[3,4-b]pyrazin-3-yl}-1H-pyrazol-1-yl)-N-methylacetamide] |
| 0.1 to 1 | 1 to 30 | CC(=O)N1CCc2nc(N3CCC(Oc4ccc(F)cc4F)CC3)c(-c3cn[nH]c3)nc2C1 [Compound 32, 1-(2-(4-(2,4-difluorophenoxy)piperidin-1-yl)-3-(1H-pyrazol-4-yl)-7,8-dihydropyrido[3,4-b]pyrazin-6(5H)-yl)ethan-1-one] |
| 1 to 30 | 1 to 30 | CC(=O)N1CCc2nc(N3CCC(Oc4ccc(F)cc4F)CC3)c(-c3cncnc3)nc2C1 [Compound 34, 1-{2-[4-(2,4-difluorophenoxy)piperidin-1-yl]-3-(pyrimidin-5-yl)-5H,6H,7H,8H-pyrido [3,4-b]pyrazin-6-yl}ethan-1-one] |
| 0.1 to 1 | 1 to 30 | COc1cncc(-c2nc3c(nc2N2CCC(Oc4ccc(F)cc4F)CC2)CCN(C(C)=O)C3)c1 [Compound 38, 1-{2-[4-(2,4-difluorophenoxy)piperidin-1-yl]-3-(5-methoxypyridin-3-yl)-5H,6H,7H,8H-pyrido[3,4-b]pyrazin-6-yl}ethan-1-one] |
| 0.1 to 1 | 1 to 30 | CC(=O)N1CCc2nc(N3CCC(Oc4ccc(F)cc4F)CC3)c(-c3cn[nH]c3C)nc2C1 [Compound 43, 1-{2-[4-(2,4-difluorophenoxy)piperidin-1-yl]-3-(5-methyl-1H-pyrazol-4-yl)-5H,6H,7H,8H-pyrido[3,4-b]pyrazin-6-yl}ethan-1-one] |

Continued, compound first:

| SMILES | IC50 (GPR6) [µM] | IC50 (GPR3) [µM] |
| --- | --- | --- |
| CC(=O)N1CCc2nc(N3CCC(Oc4ccc(F)cc4F)CC3)c(-c3cnc4n3CCN(C(C)=O)C4)nc2C1 [Compound 17, 1-(3-(6-acetyl-2-(4-(2,4-difluorophenoxy)piperidin-1-yl)-5,6,7,8-tetrahydropyrido[3,4-b]pyrazin-3-yl)-5,6-dihydroimidazo[1,2-a]pyrazin-7(8H)-yl)ethan-1-one] | 1 to 30 | 1 to 30 |
| CC(=O)N1CCc2nc(N3CCC(Oc4ccc(F)cc4F)CC3)c(-c3cnccn3)nc2C1 [Compound 19, 1-{2-[4-(2,4-difluorophenoxy)piperidin-1-yl]-3-(pyrazin-2-yl)-5H,6H,7H,8H-pyrido[3,4-b]pyrazin-6-yl}ethan-1-one] | 1 to 30 | 0.1 to 1 |
| COc1cc(-c2nc3c(nc2N2CCC(Oc4ccc(F)cc4F)CC2)CCN(C(C)=O)C3)ccn1 [Compound 20, 1-{2-[4-(2,4-difluorophenoxy)piperidin-1-yl]-3-(2-methoxypyridin-4-yl)-5H,6H,7H,8H-pyrido[3,4-b]pyrazin-6-yl}ethan-1-one] | 0.1 to 1 | 1 to 30 |
| CS(=O)(=O)c1ccc(CN2CCN(c3nc4ccncc4nc3-c3cn[nH]c3)CC2)c(F)c1 [Compound 22, 1-[(2-fluoro-4-methanesulfonylphenyl)methyl]-4-[3-(1H-pyrazol-4-yl)pyrido[3,4-b]pyrazin-2-yl]piperazine] | ≥ 30 | 0.1 to 1 |
| CC(=O)N1CCc2nc(N3CCC(Oc4ccc(F)cc4F)CC3)c(-c3cccc(OC(C)(C)C)n3)nc2C1 [Compound 23, 1-{3-[6-(tert-butoxy)pyridin-2-yl]-2-[4-(2,4-difluorophenoxy)piperidin-1-yl]-5H,6H,7H,8H-pyrido[3,4-b]pyrazin-6-yl}ethan-1-one] | 1 to 30 | 0.1 to 1 |
| CC(=O)N1CCc2nc(N3CCC(Oc4ccc(F)cc4F)CC3)c(-c3cnc4n3CCNC4)nc2C1 [Compound 24, 1-(2-(4-(2,4-difluorophenoxy)piperidin-1-yl)-3-(5,6,7,8-tetrahydroimidazo[1,2-a]pyrazin-3-yl)-7,8-dihydropyrido[3,4-b]pyrazin-6(5H)-yl)ethan-1-one] | 1 to 30 | 0.1 to 1 |
| Fc1ccc(OC2CC3(C2)CN(c2nc4ccncc4nc2-c2cn[nH]c2)C3)c(F)c1 [Compound 26, 2-(6-(2,4-difluorophenoxy)-2-azaspiro[3.3]heptan-2-yl)-3-(1H-pyrazol-4-yl)pyrido[3,4-b]pyrazine] | 1 to 30 | 0.1 to 1 |
| N#Cc1ccc2nc(N3CCN(Cc4cc(Cl)ccc4Cl)CC3)c(-c3ncc[nH]3)nc2c1 [Compound 27, 2-{4-[(2,5-dichlorophenyl)methyl]piperazin-1-yl}-3-(1H-imidazol-2-yl)quinoxaline-6-carbonitrile] | 1 to 30 | 0.1 to 1 |
| COCn1ccnc1-c1nc2ccncc2nc1N1CCN(Cc2ccc(F)cc2Cl)CC1 [Compound 28, 1-[(2-chloro-4-fluorophenyl)methyl]-4-{2-[1-(methoxymethyl)-1H-imidazol-2-yl]pyrido[3,4-b]pyrazin-3-yl}piperazine] | ≥ 30 | 0.1 to 1 |
| COc1cccc(-c2nc3cnccc3nc2N2CCN(Cc3ccc(S(C)(=O)=O)cc3F)CC2)n1 [Compound 29, 1-[(2-fluoro-4-methanesulfonylphenyl)methyl]-4-[3-(6-methoxypyridin-2-yl)pyrido[3,4-b]pyrazin-2-yl]piperazine] | 1 to 30 | 0.1 to 1 |
| CC(=O)N1CCc2nc(N3CCC(Oc4ccc(F)cc4F)CC3)c(-c3cccc(OC4CCC4)n3)nc2C1 [Compound 30, 1-[3-(6-cyclobutoxypyridin-2-yl)-2-[4-(2,4-difluorophenoxy)piperidin-1-yl]-5H,6H,7H,8H-pyrido[3,4-b]pyrazin-6-yl]ethan-1-one] | 1 to 30 | 1 to 30 |
| CC(=O)N1CCc2nc(N3CCC(Oc4ccc(F)cc4F)CC3)c(-c3cn[nH]c3C(C)C)nc2C1 [Compound 31, 1-{2-[4-(2,4-difluorophenoxy)piperidin-1-yl]-3-[5-(propan-2-yl)-1H-pyrazol-4-yl]-5H,6H,7H,8H-pyrido[3,4-b]pyrazin-6-yl}ethan-1-one] | 1 to 30 | 1 to 30 |
| CC(=O)N1CCc2nc(N3CCC(Oc4ccc(F)cc4F)CC3)c(-c3cccc(=O)[nH]3)nc2C1 [Compound 33, 6-(6-acetyl-2-(4-(2,4-difluorophenoxy)piperidin-1-yl)-5,6,7,8-tetrahydropyrido[3,4-b]pyrazin-3-yl)pyridin-2(1H)-one] | 0.1 to 1 | 1 to 30 |
| Fc1ccc(NC2CCN(c3nc4ccncc4nc3-c3cn[nH]c3)CC2)c(F)c1 [Compound 35, 1-(3-(1H-pyrazol-4-yl)pyrido[3,4-b]pyrazin-2-yl)-N-(2,4-difluorophenyl)piperidin-4-amine] | 1 to 30 | 1 to 30 |
| CC(=O)N1CCc2nc(N3CCC(Oc4ccc(F)cc4F)CC3)c(-c3cccc(=O)n3C)nc2C1 [Compound 36, 6-{6-acetyl-2-[4-(2,4-difluorophenoxy)piperidin-1-yl]-5H,6H,7H,8H-pyrido[3,4-b]pyrazin-3-yl}-1-methyl-1,2-dihydropyridin-2-one] | 1 to 30 | 0.1 to 1 |
| CC(=O)N1CCc2nc(N3CCC(Oc4ccc(F)cc4F)CC3)c(-c3ncccn3)nc2C1 [Compound 37, 1-{2-[4-(2,4-difluorophenoxy)piperidin-1-yl]-3-(pyrimidin-2-yl)-5H,6H,7H,8H-pyrido[3,4-b]pyrazin-6-yl}ethan-1-one] | 1 to 30 | 0.1 to 1 |
| CC(=O)N1CCc2nc(N3CCC(Oc4ccc(F)cc4F)CC3)c(-c3cccc(OC(C)C)n3)nc2C1 [Compound 39, 1-{2-[4-(2,4-difluorophenoxy)piperidin-1-yl]-3-[6-(propan-2-yloxy)pyridin-2-yl]-5H,6H,7H,8H-pyrido[3,4-b]pyrazin-6-yl}ethan-1-one] | 1 to 30 | 0.1 to 1 |
| CC(=O)N1CCc2nc(N3CCC(Oc4ccc(F)cc4F)CC3)c(-c3ncc[nH]3)nc2C1 [Compound 40, 1-(2-(4-(2,4-difluorophenoxy)piperidin-1-yl)-3-(1H-imidazol-2-yl)-7,8-dihydropyrido[3,4-b]pyrazin-6(5H)-yl)ethan-1-one] | 1 to 30 | 1 to 30 |
| Fc1ccc(OC2CCN(c3nc4ccncc4nc3-c3ncc[nH]3)CC2)c(F)c1 [Compound 41, 4-(2,4-difluorophenoxy)-1-[3-(1H-imidazol-2-yl)pyrido[3,4-b]pyrazin-2-yl]piperidine] | 1 to 30 | 1 to 30 |
| Fc1ccc(Cl)cc1CN1CCN(c2nc3cnccc3nc2-c2ncc[nH]2)CC1 [Compound 42] | 1 to 30 | 0.1 to 1 |
